Measured values from ChEMBL document CHEMBL4725257, “Investigation into the influence of an acrylic acid acceptor in organic D-π-A sensitizers against phototoxicity” (Bioorg Med Chem, 2020).

Assays:
[1] = Photo-oxidation of L-tryptophan assessed as oxidative damage at 10 uM irradiated with white LED light at 15 mins interval for 60 mins by fluorescence based analysis; type: ADME; details: 1 h
[2] = Drug uptake in human HeLa cells at 20 uM incubated for 1 hr at 37 degC by fluorescence based analysis; type: ADME, cell-based
[3] = Drug uptake in human HeLa cells at 20 uM incubated for 1 hr at 4 degC by fluorescence based analysis; type: ADME, cell-based
[4] = Drug uptake in human HeLa cells at 20 uM pretreated with clathrin-mediated endocytosis inhibitor, sucrose for 1 hr followed by incubation with compound for 1 hr by fluorescence based analysis; type: ADME, cell-based
[5] = Drug uptake in human HeLa cells at 20 uM pretreated with lipid raft endocytosis inhibitor, methyl-beta-cyclodextrin for 1 hr followed by incubation with compound for 1 hr by fluorescence based analysis; type: ADME, cell-based
[6] = Drug uptake in human HeLa cells at 20 uM pretreated with endosome fusion inhibitor, wortmannin for 1 hr followed incubation with compound for 1 hr by fluorescence based analysis; type: ADME, cell-based
HeLa [7] = experiment: Cytotoxicity against human HeLa cells assessed as reduction in cell viability incubated for 48 hrs measured under dark conditions by MTT assay; type: functional, cell-based
HeLa [8] = experiment: Phototoxicity against human HeLa cells assessed as reduction in cell viability preincubated for 1 hr followed by white LED irradiation for 15 mins and measured after 48 hrs by MTT assay; type: functional, cell-based; details: light or radiation study
[9] = Phototoxicity index, ratio of IC50 for cytotoxicity against human HeLa cells measured under dark condition to IC50 for phototoxicity against human HeLa cells upon white LED light irradiation; type: functional
[10] = Drug uptake in mitochondria of human HeLa cell by fluorescence confocal microscopy; type: ADME
[11] = Drug uptake in lysosomes of human HeLa cell by fluorescence confocal microscopy; type: ADME, subcellular, Lysosome
[12] = Drug uptake in human HeLa cell membrane by fluorescence confocal microscopy; type: ADME, cell membranes
[13] = Photo-oxidation of L-tryptophan assessed as oxidative damage at 10 uM irradiated with white LED light at 15 mins interval for 60 mins in presence of type 2 singlet oxygen quencher, NaN3 by fluorescence based analysis; type: ADME; details: 1 h

| SMILES | Drug uptake [2] [pmol] | Drug uptake [3] [pmol] | Drug uptake [4] [pmol] | Drug uptake [5] [pmol] | Drug uptake [6] [pmol] | Drug uptake [10] | Drug uptake [11] | Drug uptake [12] | Activity [1] | IC50 (HeLa [7]) [µM] | IC50 (HeLa [8]) [µM] | Ratio IC50 [9] | Activity [13] |
| --- | --- | --- | --- | --- | --- | --- | --- | --- | --- | --- | --- | --- | --- |
| O=C(O)/C=C/c1ccc(-c2ccc(-c3ccc(N(c4ccccc4)c4ccccc4)cc3)s2)s1 | 80 | 40 | – | – | – | Active | Active | – | Active | 13.8 | 0.046 | 460 | – |
| C[n+]1ccc(/C=C/c2ccc(-c3ccc(-c4ccc(N(c5ccccc5)c5ccccc5)cc4)s3)s2)cc1.[I-] | 747 | 344 | 591 | 555 | 649 | Active | Active | Active | Active | 3.3 | 0.94 | 3.5 | – |
| N#CC(C#N)=Cc1ccc(-c2ccc(-c3ccc(N(c4ccccc4)c4ccccc4)cc3)s2)s1 | – | – | – | – | – | – | – | – | – | > 100 | > 74.4 | – | – |
| O=C(O)C(=Cc1ccc(-c2ccc(-c3ccc(N(c4ccccc4)c4ccccc4)cc3)s2)s1)C(=O)O | 53 | 36 | – | – | – | Active | Active | – | Active | 61.8 | 0.68 | 91 | Not Active |
| COC(=O)/C(C#N)=C/c1ccc(-c2ccc(-c3ccc(N(c4ccccc4)c4ccccc4)cc3)s2)s1 | – | – | – | – | – | – | – | – | – | > 100 | > 100 | – | – |

The next lines start with results.

| Drug uptake [2] [pmol] | Drug uptake [3] [pmol] | Drug uptake [4] [pmol] | Drug uptake [5] [pmol] | Drug uptake [6] [pmol] | Drug uptake [10] | Drug uptake [11] | Drug uptake [12] | SMILES | Activity [1] | IC50 (HeLa [7]) [µM] | IC50 (HeLa [8]) [µM] | Ratio IC50 [9] | Activity [13] |
| --- | --- | --- | --- | --- | --- | --- | --- | --- | --- | --- | --- | --- | --- |
| 299 | 64 | 188 | 82 | 205 | Active | Active | – | O=C(O)c1ccc(-c2ccc(-c3ccc(N(c4ccccc4)c4ccccc4)cc3)s2)s1 | Active | > 100 | 7.8 | >12 | – |
| 232 | 44 | 199 | 98 | 225 | Active | Active | – | O=C(O)CCc1ccc(-c2ccc(-c3ccc(N(c4ccccc4)c4ccccc4)cc3)s2)s1 | Active | 43.4 | 2.4 | 18 | – |
| 105 | 68 | – | – | – | Active | Active | – | c1ccc(N(c2ccccc2)c2ccc(-c3ccc(-c4cccs4)s3)cc2)cc1 | Active | > 100 | > 100 | – | – |
